Assay results taken from patent publication US20100055145A1, “STENT COATINGS FOR REDUCING LATE STENT THROMBOSIS” (Biosensors International Group, priority 2008, published 2010).

Legend:
[1] = Partition coefficient (log P), reverse phase HPLC
[2] = tested on: proliferating animal and human smooth muscle cells; assay: Growth inhibition of smooth muscle cells in culture; format: cell-based; conditions: compared with sirolimus
Description: Like sirolimus and everolimus, BIOLIMUS A9 is rapidly absorbed in tissues and is able to reversibly bind to immunophilins (cytoplasmic proteins) found inside living cells.

[3] = Solubility of BIOLIMUS A9; format: physicochemical

CCOCCO[C@@H]1CC[C@@H](C[C@@H](C)[C@@H]2CC(=O)[C@H](C)/C=C(\C)[C@@H](O)[C@@H](OC)C(=O)[C@H](C)C[C@H](C)/C=C/C=C/C=C(\C)[C@@H](OC)C[C@@H]3CC[C@@H](C)[C@@](O)(O3)C(=O)C(=O)N3CCCC[C@H]3C(=O)O2)C[C@H]1OC [BIOLIMUS A9, 42-O-(2-ethoxyethyl)rapamycin]
Partition Coefficient (E Log Poct): Log Pn-octanol ([1]; As measured by reverse phase HPLC): Log Pn-octanol = 7.63 | partition coefficient (log P) ([1]; pH 7.40, estimated): 7.63 | potency of growth inhibition of proliferating smooth muscle cells [2]: potency similar to that of sirolimus | Solubility: 25% ethanol in water ([3]; 25% ethanol in water): Practically insoluble | Solubility: ethanol ([3]; ethanol): Very soluble | Solubility: ethyl acetate ([3]; ethyl acetate): Very soluble | Solubility: methanol ([3]; methanol): Very soluble | Solubility: water (independent of pH) ([3]; water (independent of pH)): Practically insoluble | peak blood levels (after stent implantation): 3 ng/mL | peak blood level lower than therapeutic levels of oral sirolimus or everolimus following organ transplant (in vivo, po): 20 fold
